Series [1] has as its system PDGF-BB-induced VSMC proliferation. As to the kind of experiment: Proliferation assay (resazurin conversion) in PDGF-BB-stimulated VSMC. The series is classed as cell-based, rat. The following applies: for activity at 10 µM / IC50: Rattus norvegicus, resazurin; for activity at 10 µM: VSMC, 10 μmol/L, PDGF-BB 20 ng/mL 48 h, read-out: VSMC proliferation at 10 μmol/L (relative to vehicle control, RU); for IC50: PDGF-BB-induced VSMC proliferation. On the procedure:
Primary VSMC were cultivated in DMEM-F12 (1:1) supplemented with 20% fetal bovine serum, 30 μg/ml gentamicin, and 15 ng/mL amphotericin B at 37°C in an incubator with 5% CO2 flow in a humidified atmosphere. Passages 4 to 12 were used in experiments.
Resazurin conversion to fluorescent resorufin was used as a measure for cell proliferation. Primary VSMC were seeded at 5 × 10^3 cells/well in a 96-well plate to grow for the next 24 h. Cells were then synchronized into G0 phase by serum deprivation for 24 h, pretreated with compounds for 30 min and stimulated with 20 ng/mL PDGF-BB for the next 48 h. After one washing step, cells were incubated in starvation medium containing 10 μg/mL resazurin for 2 h, and changes in fluorescence were monitored in a Tecan Spark (Tecan Group, Männedorf, Switzerland) plate reader at an excitation wavelength of 535 nm and an emission wavelength of 580 nm.

The nature of series [2]: Stability of RA QC samples under different storage conditions. It counts as physicochemical, rat.
On the set-up of series [3]: method as in Nakazawa and Ohsawa, 1998. As to conditions: rat; ref Nakazawa and Ohsawa, 1998; cited from earlier work.
On the set-up of series [4]: method as in earlier work. As to conditions: rats and humans; ref Nakazawa and Ohsawa, 1998; Baba et al., 2005; Wang et al., 2017; cited from earlier work.
Details of series [5]: method as in Baba et al., 2005. As to conditions: human; ref Baba et al., 2005; cited from earlier work.
The test system of series [6] is PDGF-BB-induced VSMC. As to the kind of experiment: Cell cycle analysis (PI staining, flow cytometry). The series is classed as cell-based, rat. As to conditions: 3 μmol/L, PDGF-BB 16 h. On the procedure: Flow cytometry was used to analyze cell cycle progression. VSMC were seeded at a density of 10^5 cells per well in 12-well plates. After rendered quiescent, cells were treated with increasing concentrations of RAME (7), RAET (8), RABU (9) and RAOCT (10) or with 0.1% DMSO for 30 min followed by stimulation with 20 ng/mL PDGF-BB for 16 h. Cells were collected by trypsinization, washed and resuspended in a hypotonic propidium iodide (PI) solution containing 0.1% (v/v) Triton X-100, 0.1% (w/v) sodium citrate, and 50 μg/mL PI. PI-stained nuclei were analyzed on a FACSCalibur (BD Biosciences, Vienna, Austria) flow cytometer at an excitation wavelength of 488 nm and an emission wavelength of 585 nm.
FIGURE 5 Ethyl, butyl and octyl esters of rosmarinic acid (RA) inhibit the proliferation of VSMC by exerting the same mechanism of action as the methyl ester (A) Quiescent VSMC were treated with 0.1% DMSO or increasing concentrations of RA esters as indicated for 30 min, stimulated with 20 ng/mL PDGF-BB for 16 h and the cell cycle progression was analyzed using PI staining and flow cytometry. […]
A general note: In flow cytometry, cells or beads pass a laser one at a time.

For series [7], the system named is VSMC. As to the kind of experiment: Cytotoxicity assay (LDH release) in PDGF-induced VSMC. As to conditions: PDGF-BB 24 h. It counts as cell-based. On the procedure:
Increased lactate dehydrogenase (LDH) release is an indicator for the loss of cell membrane integrity, associated with cell death. Determination of LDH release in response to increasing concentrations of RAME (7), RAET (8), RABU (9), RAOCT (10) and RADOD (11) was performed as previously described ([Liu et al., 2018]).
FIGURE 4 Cytotoxicity of RA esters in PDGF-induced VSMC. VSMC were pretreated with 0.1% DMSO or increasing concentrations of RA esters as indicated for 30 min, stimulated with 20 ng/mL PDGF-BB for 24 h, and released LDH was determined. Digitonin (80 μmol/L) was used as a positive control. Graphs show means ± SD out of 3 (RAME, RAET and RABU) and 4 (RAOCT and RADOD) independent experiments (n.s., not significant, p > 0.05, **p < 0.01, ***p < 0.001, ANOVA/Bonferroni, “vehicle with PDGF-BB” vs. “RA ester with PDGF-BB”).
A general note: LDH leaks from cells whose membrane has failed.

In series [8] the test system is cultured VSMC. Kind of series: Intracellular bioavailability of RA esters (LC-MS/MS of cytoplasmic fractions). The series is classed as in vitro ADME, rat. The following applies: for intracellular concentration as share of applied concentration: 10 μmol/L applied; for intracellular content normalized to protein: at 8.5 h; for intracellularly accumulated concentration: after 0.5 h exposure to 10 μmol/L; for intracellular level relative to those of RAME and RAET: exposure to 10 μmol/L. On the procedure: After cells had been lysed and membranes had been removed by centrifugation, as described in the previous section, half of the cytoplasmic fractions were collected in 1.5 mL eppendorf tubes, diluted with methanol in 1:3 ratios and centrifuged at 5,600 × g for 20 min to remove proteins. Supernatants were then subjected to LC-MS/MS analysis to determine the cytoplasmic concentrations of RA esters at each treatment time point up to 16 h PDGF-BB stimulation. Cell culture media were also collected prior to the lysis procedure, diluted with methanol in a manner described above and subjected to LC-MS/MS. […] Intracellular concentrations of RA esters were normalized to protein concentrations at each treatment time point. Details of the quantification method are shown in the Supplementary Material.
FIGURE 6 Esters of rosmarinic acid with longer alkyl groups show increased intracellular bioavailability.

Series [9] has as its system CDK4. Details: method as in Liu et al., 2018. The following applies: ref Liu et al., 2018; cited from earlier work.
Series [10] has as its system CDK2. Details: method as in Liu et al., 2018. As to conditions: CDK2 kinase activity in vitro; ref Liu et al., 2018; cited from earlier work.
Where [11] appears, read: Long-term stability (15 d at -20°C), nominal 2 ng/mL.
Setting [12] is: Long-term stability (15 d at -20°C), nominal 800 ng/mL.
[13] abbreviates: Post-preparative stability (8 h at 4°C), nominal 2 ng/mL.
[14] abbreviates: Post-preparative stability (8 h at 4°C), nominal 800 ng/mL.
Where [15] appears, read: Short-term stability (8 h at room temperature), nominal 2 ng/mL.
[16] abbreviates: Short-term stability (8 h at room temperature), nominal 800 ng/mL.
[17] abbreviates: Stock Solution Stability (8 h at room temperature), nominal 2 ng/mL.
Setting [18] is: Stock Solution Stability (8 h at room temperature), nominal 800 ng/mL.

Each structure is given as a SMILES string. Several values for one entry are separate records, joined by “and”; a condition that tells them apart may be missing. Equal entries are not always repeated. Where two headings read alike, the source gives them in different places.

As to `O=C(O)/C=C/c1cccc(O)c1` [Compound 3, m-coumaric acid, reference compound], the activity at 10 µM in [1] was determined as 107 ± 15.2%.

Regarding `COc1cc(/C=C/C(=O)O)ccc1O` [Compound 4, ferulic acid, reference compound], the activity at 10 µM in series [1] is 107 ± 17.3%.

Take `O=C(O)CCc1cccc(O)c1` [Compound 5, m-hydroxyphenylpropionic acid, reference compound]: the activity at 10 µM in series [1] was 120 ± 27.8%.

As for `O=C(/C=C/c1ccc(O)c(O)c1)O[C@H](Cc1ccc(O)c(O)c1)C(=O)O` [RA (6), Rosmarinic acid], the “Measured Concentration” value in series [2] (Freeze-thaw stability (three cycles), nominal 2 ng/mL) was 2.14 ± 0.09 ng/mL; in series [2] (Freeze-thaw stability (three cycles), nominal 800 ng/mL) it was 786.67 ± 50.06 ng/mL; in series [2] (setting [11]) it was 2.18 ± 0.09 ng/mL; in series [2] (setting [12]) it was 770.67 ± 50.01 ng/mL; in series [2] (setting [13]), 1.88 ± 0.13 ng/mL; in [2] (setting [14]), 737.00 ± 8.00 ng/mL. Moreover, the “Measured Concentration” value in [2] (setting [15]) came to 1.79 ± 0.07 ng/mL; in [2] (setting [16]), 762.33 ± 27.75 ng/mL; in series [2] (setting [17]) it was 1.90 ± 0.08 ng/mL; in series [2] (setting [18]), 782.33 ± 27.43 ng/mL. For the same compound, the RE in [2] (setting [11]) is recorded as 8.83%; in [2] (setting [12]), -3.67%; in series [2] (setting [13]), -5.83%; in series [2] (setting [14]), -7.88%; in series [2] (setting [15]), -10.67%; in [2] (setting [16]), -4.71%. The RE in [2] (setting [17]) is reported as -4.83%; in series [2] (setting [18]), -2.21%. Also, the entries for the “cumulative proportions of all RA metabolites detected in urine (of the administered dose)” value in series [3] and in series [5] were “about 32%” and ~6%, respectively. Also, the “amount of orally ingested RA absorbed” value in series [4] is “up to 1.69%”. In [1], the activity at 10 µM was 78.1 ± 16.7%.

As for `CCCCOC(=O)[C@@H](Cc1ccc(O)c(O)c1)OC(=O)/C=C/c1ccc(O)c(O)c1` [RABU (9), rosmarinic acid butyl ester], the “percentage of cells in G0/G1 compared to vehicle control” value in [6] is “significantly higher percentage of cells in G0/G1”. The “cell death (LDH release)” value in series [7] (up to 30 μmol/L) is “did not induce cell death”. For the same compound, in series [8], the “intracellular concentration as share of applied concentration” value (from here on “intracellular concentration as share”) is on record as 60%; the intracellularly accumulated concentration entry is “about 6 μmol/L”; the “intracellular level relative to those of RAME and RAET” value is recorded as ~3 fold. The “intracellular content normalized to protein” value in series [8] (10 μmol/L) is on record as “around 2 pmol per µg of protein”. Moreover, in series [1], the activity at 10 µM came out at 30.8 ± 5.2% and the half-inhibitory concentration (IC50) stood at 2.84 µM.

`CCCCCCCCCCCCOC(=O)[C@@H](Cc1ccc(O)c(O)c1)OC(=O)/C=C/c1ccc(O)c(O)c1` [RADOD (11), rosmarinic acid dodecyl ester]: the “cell death (LDH release)” value in [7] (30 μmol/L) is given as “comparable to that of the positive control, digitonin”. Also, the values for the VSMC proliferation entry in series [1] (1 μmol/L (data not shown)) and in series [1] (3 μmol/L (data not shown)) were “unaffected” and “completely abrogated”, respectively. The activity at 10 µM in [1] is 5.4 ± 8.1%.

Regarding `CCOC(=O)[C@@H](Cc1ccc(O)c(O)c1)OC(=O)/C=C/c1ccc(O)c(O)c1` [RAET (8), rosmarinic acid ethyl ester], the “cell death (LDH release)” value in series [7] (up to 30 μmol/L) was “did not induce cell death”. Also, in series [8], the “intracellular concentration as share” value was “about 20%”. For the same compound, the “intracellular content normalized to protein” value in series [8] (10 μmol/L) is recorded as “around 2 pmol per µg of protein”. In [1], the activity at 10 µM stood at 32.8 ± 8.1% and it took 3.37 µM to reach half-maximal inhibition (IC50).

With `COC(=O)[C@@H](Cc1ccc(O)c(O)c1)OC(=O)C=Cc1ccc(O)c(O)c1` [RAME (7), rosmarinic acid methyl ester], the “activity of CDK4” value in series [9] is “affected only at much higher concentrations”. Besides, the “cell death (LDH release)” value in series [7] (up to 30 μmol/L) was “did not induce cell death”. Besides, the “intracellular concentration as share” value in series [8] is on record as “about 20%”. For the same compound, in series [8] (10 μmol/L), the “intracellular content normalized to protein” value is recorded as “around 2 pmol per µg of protein”. Also, the IC50 in series [10] is 11.4 µM. Besides, in series [1], the activity at 10 µM came out at 41.5 ± 10.9% and the IC50 amounted to 7.9 µM.

In the case of `CCCCCCCCOC(=O)[C@@H](Cc1ccc(O)c(O)c1)OC(=O)/C=C/c1ccc(O)c(O)c1` [RAOCT (10), rosmarinic acid octyl ester], the “percentage of cells in G0/G1 compared to vehicle control” value in [6] is reported as “significantly higher percentage of cells in G0/G1”. Besides, the “cell death (LDH release)” value in [7] (30 μmol/L) is recorded as “marked but not significant increase in LDH production”. The LDH release result in series [7] (3 and 10 μmol/L) is recorded as “distinct LDH release, which however did not reach significance”. Besides, in series [8] (10 μmol/L, 16.5 h time point), the “concentration within VSMC” value was “remained relatively high”. Further, in series [8], the intracellularly accumulated concentration result is “about 6 μmol/L”; the “intracellular level relative to those of RAME and RAET” value is ~3 fold and ~4 fold. Moreover, in [1], the activity at 10 µM was determined as 33.8 ± 14.7% and it took 2.22 µM to reach half-maximal inhibition (IC50).

Usually IC50 stands for the concentration at which inhibition is half-maximal.

The values are drawn from paper PMC7859449, “Short Chain (≤C4) Esterification Increases Bioavailability of Rosmarinic Acid and Its Potency to Inhibit Vascular Smooth Muscle Cell Proliferation” (Frontiers in Pharmacology, 2021).
